In ChEMBL document CHEMBL3045977, “Antidiabetic and antioxidant activity of hydroxycinnamic acids from Calamintha Officinalis Moench” (2012):

Key:
Type in all cases: functional
Rattus norvegicus [1] = experiment: Antidiabetic activity in alloxan-induced diabetic Rattus norvegicus albino Wistar (rat) model assessed as reduction in LDL level at 10 mg/kg, po administered for 14 days measured on day 14 (reference value: 68.2 +/- 2.10 mg/dl)
Rattus norvegicus [2] = experiment: Antidiabetic activity in alloxan-induced diabetic Rattus norvegicus albino Wistar (rat) model assessed as reduction in triglyceride level at 10 mg/kg, po administered for 14 days measured on day 14 (reference value: 210.8 +/- 1.25 mg/dl)
Rattus norvegicus [3] = experiment: Antidiabetic activity in alloxan-induced diabetic Rattus norvegicus albino Wistar (rat) model assessed as reduction in total cholesterol level at 10 mg/kg, po administered for 14 days measured on day 14 (reference value: 131.2 +/- 0.48 mg/dl)
Rattus norvegicus [4] = experiment: Antidiabetic activity in alloxan-induced diabetic Rattus norvegicus albino Wistar (rat) model assessed as reduction in triglyceride level at 10 mg/kg, po administered for 14 days measured on day 1 (reference value: 158.9 +/- 1.23 mg/dl)
Rattus norvegicus [5] = experiment: Antidiabetic activity in alloxan-induced diabetic Rattus norvegicus albino Wistar (rat) model assessed as reduction in HDL level at 10 mg/kg, po administered for 14 days measured on day 14 (reference value: 36.4 +/- 1.05 mg/dl)
Rattus norvegicus [6] = experiment: Antidiabetic activity in alloxan-induced diabetic Rattus norvegicus albino Wistar (rat) model assessed as reduction in total cholesterol level at 10 mg/kg, po administered for 14 days measured on day 1 (reference value: 98.6 +/- 0.51 mg/dl)
Rattus norvegicus [7] = experiment: Antidiabetic activity in alloxan-induced diabetic Rattus norvegicus albino Wistar (rat) model assessed as reduction in blood glucose level at 10 mg/kg, po administered for 14 days measured on day 1 (reference value: 242.2 +/- 0.71 mg/dl)
Rattus norvegicus [8] = experiment: Antidiabetic activity in alloxan-induced diabetic Rattus norvegicus albino Wistar (rat) model assessed as change in body weight at 10 mg/kg, po administered for 14 days measured on day 1 (reference value: 205.4 +/-2.68 g)
Rattus norvegicus [9] = experiment: Antidiabetic activity in alloxan-induced diabetic Rattus norvegicus albino Wistar (rat) model assessed as reduction in VLDL level at 10 mg/kg, po administered for 14 days measured on day 1 (reference value: 14.4 +/- 1.04 mg/dl)
Rattus norvegicus [10] = experiment: Antidiabetic activity in alloxan-induced diabetic Rattus norvegicus albino Wistar (rat) model assessed as change in body weight at 10 mg/kg, po administered for 14 days measured on day 14 (reference value: 190.6 +/-1.78 g)
Rattus norvegicus [11] = experiment: Antidiabetic activity in alloxan-induced diabetic Rattus norvegicus albino Wistar (rat) model assessed as reduction in LDL level at 10 mg/kg, po administered for 14 days measured on day 1 (reference value: 52.4 +/- 2.32 mg/dl)
Rattus norvegicus [12] = experiment: Antidiabetic activity in alloxan-induced diabetic Rattus norvegicus albino Wistar (rat) model assessed as TBRAS level per gram of liver tissue at 10 mg/kg, po administered for 14 days measured after 14 days (reference value: 0.72 +/-0.12 uM/g)
Rattus norvegicus [13] = experiment: Antidiabetic activity in alloxan-induced diabetic Rattus norvegicus albino Wistar (rat) model assessed as reduction in blood glucose level at 10 mg/kg, po administered for 14 days measured on day 14 (reference value: 248.6 +/- 1.20 mg/dl)
Rattus norvegicus [14] = experiment: Antidiabetic activity in alloxan-induced diabetic Rattus norvegicus albino Wistar (rat) model assessed as reduction in HDL level at 10 mg/kg, po administered for 14 days measured on day 1 (reference value: 40.1 +/- 2.11 mg/dl)
Rattus norvegicus [15] = experiment: Antidiabetic activity in alloxan-induced diabetic Rattus norvegicus albino Wistar (rat) model assessed as reduction in VLDL level at 10 mg/kg, po administered for 14 days measured on day 14 (reference value: 29.9 +/- 0.83 mg/dl)

SMILES | Activity (Rattus norvegicus [1]) [mg/dL] | Activity (Rattus norvegicus [2]) [mg/dL] | Activity (Rattus norvegicus [3]) [mg/dL] | Activity (Rattus norvegicus [4]) [mg/dL] | Activity (Rattus norvegicus [5]) [mg/dL] | Activity (Rattus norvegicus [6]) [mg/dL] | Activity (Rattus norvegicus [7]) [mg/dL] | Activity (Rattus norvegicus [8]) [g] | Activity (Rattus norvegicus [9]) [mg/dL] | Activity (Rattus norvegicus [10]) [g] | Activity (Rattus norvegicus [11]) [mg/dL] | Activity (Rattus norvegicus [12]) [µM] | Activity (Rattus norvegicus [13]) [mg/dL] | Activity (Rattus norvegicus [14]) [mg/dL] | Activity (Rattus norvegicus [15]) [mg/dL]
O=C(O)/C=C/c1ccc(O)c(O)c1 [CAFFEIC ACID] | 41 | 103.2 | 60.6 | 160.4 | 41.4 | 101.2 | 239 | 209.3 | 15 | 246 | 53.7 | 0.56 | 105.4 | 38.2 | 20.9
COc1ccc(Cl)cc1C(=O)NCCc1ccc(S(=O)(=O)NC(=O)NC2CCCCC2)cc1 [GLYBURIDE] | 36.4 | 102.5 | 58.6 | 161.6 | 45.7 | 98.1 | 240 | 207.6 | 14 | 250.5 | 50 | 0.45 | 115.1 | 39.7 | 20.1
O=C(/C=C/c1ccc(O)c(O)c1)O[C@H](Cc1ccc(O)c(O)c1)C(=O)O [ROSMARINIC ACID] | 42.3 | 100.5 | 57.2 | 157.6 | 50.2 | 100.1 | 244.1 | 206.8 | 14.2 | 249.5 | 51.3 | 0.5 | 97.3 | 41.2 | 21.7
